Entries after “also recorded” stand apart in the source; their conditions may differ.
Assays:
human M5 mAChR = molecular target: T1, human M5 mAChR (Homo sapiens, UniProt P08912); experiment: [3H]NMS binding, CHO cell membranes expressing human M5 mAChR
T1 sequence (P08912 1-532): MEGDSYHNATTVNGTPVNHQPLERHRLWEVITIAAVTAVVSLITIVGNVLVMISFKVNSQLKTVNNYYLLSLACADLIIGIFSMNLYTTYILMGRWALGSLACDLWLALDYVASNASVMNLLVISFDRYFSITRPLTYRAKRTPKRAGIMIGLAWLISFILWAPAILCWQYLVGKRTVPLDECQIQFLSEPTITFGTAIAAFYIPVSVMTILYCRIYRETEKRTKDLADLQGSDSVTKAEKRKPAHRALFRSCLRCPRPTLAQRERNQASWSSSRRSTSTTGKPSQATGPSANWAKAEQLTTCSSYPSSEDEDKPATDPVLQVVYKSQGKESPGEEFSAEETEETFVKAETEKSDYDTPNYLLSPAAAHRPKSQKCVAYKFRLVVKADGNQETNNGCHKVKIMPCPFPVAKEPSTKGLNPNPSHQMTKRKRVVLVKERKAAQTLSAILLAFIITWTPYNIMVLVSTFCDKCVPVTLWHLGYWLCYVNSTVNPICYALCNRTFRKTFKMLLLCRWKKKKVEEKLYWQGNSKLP

mAChRs = experiment: [3H]DA release assay, superfused rat striatal slices
human M3 mAChR = human M3 mAChR (Homo sapiens, UniProt P20309); details: [3H]NMS binding assay; ref [36],[43]; cited from earlier work
M3 mAChR = details: ref [36],[43]; cited from earlier work

human M3 mAChR, sequence (P20309 whole entry): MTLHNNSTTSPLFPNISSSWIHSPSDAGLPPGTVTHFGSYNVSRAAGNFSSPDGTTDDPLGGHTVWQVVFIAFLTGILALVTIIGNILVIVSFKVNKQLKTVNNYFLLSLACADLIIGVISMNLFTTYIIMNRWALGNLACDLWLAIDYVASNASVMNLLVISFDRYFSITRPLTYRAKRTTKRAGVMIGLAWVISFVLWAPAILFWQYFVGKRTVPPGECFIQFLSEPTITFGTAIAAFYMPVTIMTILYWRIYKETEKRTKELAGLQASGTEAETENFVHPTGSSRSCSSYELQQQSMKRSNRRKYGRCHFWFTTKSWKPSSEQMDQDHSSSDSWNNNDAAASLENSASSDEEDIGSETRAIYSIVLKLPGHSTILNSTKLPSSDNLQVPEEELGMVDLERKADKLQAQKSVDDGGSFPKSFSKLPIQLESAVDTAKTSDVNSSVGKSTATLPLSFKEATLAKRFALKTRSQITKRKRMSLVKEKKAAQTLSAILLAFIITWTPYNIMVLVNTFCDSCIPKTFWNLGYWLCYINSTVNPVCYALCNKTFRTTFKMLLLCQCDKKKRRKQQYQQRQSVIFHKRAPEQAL

| Compound | selectivity for M3 over M2 (human M3 mAChR) [fold] | effect on carbachol-induced contraction of the isolated rat tracheal muscle (M3 mAChR) | further results |
| --- | --- | --- | --- |
| O=C(OC1CN2CCC1CC2)N(CCc1ccc(F)cc1)c1ccccc1 (racemic) [Compound 3c, (±)-quinuclidin-3-yl-(4-fluorophenethyl)(phenyl)carbamate] |  |  | fold higher affinity for M5 mAChRs compared to compound 1 (human M5 mAChR): 1200 fold; effect on oxotremorine-evoked [3H]DA overflow (mAChRs; oxotremorine 100 μM, 3c 0.1, 1, 10 μM, significant at 10 μM): augmented oxotremorine-evoked [^3H]DA overflow; also recorded: augmented release evoked by oxotremorine; also recorded: augmented oxotremorine-evoked DA release |
| O=C(NCC1CCNCC1)[C@H]1CCCN1C(=O)[C@@H]1C[C@@H](O)CN1C(=O)CC(c1ccc(F)cc1)(c1ccc(F)cc1)c1ccc(F)cc1 [compound 14a, (2R)-1-((2S,4R)-4-hydroxy-1-[3,3,3-tris(4-fluoro-phenyl)propanoyl]-pyrrolidine-2-yl)carbonyl-N-(4-piperidinyl-methyl)pyrrolidine-2-carboxamide] | 1600 | inhibition |  |
| Nc1cccc(CN2CCC(NC(=O)[C@](O)(c3ccccc3)[C@@H]3CCC(F)(F)C3)CC2)n1 [compound A, (2R)-N-[1-(6-aminopyridin-2-ylmethyl)piperidin-4-yl]-2-[(1R)-3,3-difluorocyclopentyl]-2-hydroxy-2-phenylacetamide] | 193 | inhibition |  |
| O=C1CCCN1CC#CCN1CCCC1 [oxotremorine] |  |  | effect on [3H]DA overflow compared to control (mAChRs; oxotremorine 100 μM): increased [^3H]DA overflow |
| CN1[C@@H]2C[C@H](OC(=O)[C@H](CO)c3ccccc3)C[C@H]1[C@@H]1O[C@@H]12 [scopolamine] |  |  | effect on 3c-evoked [3H]DA overflow (mAChRs; scopolamine 10 μM, 3c 10 μM): inhibited |

Source: PMC7160324 (Bioorganic & medicinal chemistry letters, 2018)
